{"source": "ChEMBL document CHEMBL5723583", "about": "“Data for DCP probe BAY-9835” (2024)", "key": {"[1]": {"target": "P2X receptor (Rattus norvegicus) (UniProt P51579+P49653+P51578+Q64663+P47824+P51577+P49654)", "test": "Inhibition of Purinergic P2X at 10.0 µM in the Eurofins-Panlabs selectivity screen", "type": "protein assay", "conditions": "Compound concentration 10.0 uM"}, "[2]": {"target": "Calpain-1 catalytic subunit (Homo sapiens, UniProt P07384)", "sequence (P07384 whole entry)": "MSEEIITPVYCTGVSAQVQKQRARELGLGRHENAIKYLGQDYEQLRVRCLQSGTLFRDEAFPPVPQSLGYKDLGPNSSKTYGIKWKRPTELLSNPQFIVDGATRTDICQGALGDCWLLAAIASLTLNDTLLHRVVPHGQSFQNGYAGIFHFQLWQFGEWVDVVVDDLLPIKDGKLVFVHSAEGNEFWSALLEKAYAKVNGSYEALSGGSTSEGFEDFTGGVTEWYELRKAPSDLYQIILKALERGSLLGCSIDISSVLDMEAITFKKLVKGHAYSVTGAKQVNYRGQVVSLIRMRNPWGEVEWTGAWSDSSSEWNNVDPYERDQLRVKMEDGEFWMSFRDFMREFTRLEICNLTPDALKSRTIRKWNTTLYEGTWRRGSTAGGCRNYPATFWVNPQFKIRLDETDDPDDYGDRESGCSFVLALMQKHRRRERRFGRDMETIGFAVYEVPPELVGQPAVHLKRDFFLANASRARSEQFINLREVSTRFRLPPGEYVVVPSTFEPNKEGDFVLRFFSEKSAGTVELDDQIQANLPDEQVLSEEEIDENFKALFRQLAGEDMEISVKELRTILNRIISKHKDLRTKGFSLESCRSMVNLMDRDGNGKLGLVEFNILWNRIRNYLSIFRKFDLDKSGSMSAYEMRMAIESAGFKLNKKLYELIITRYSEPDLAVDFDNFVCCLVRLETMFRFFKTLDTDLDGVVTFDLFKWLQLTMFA", "test": "IC50 of Calpain 1 at 1.0 µM in the Bayer in-house protease panel"}, "[3]": {"target": "Acetylcholinesterase (Homo sapiens) (UniProt P22303)", "test": "Inhibition of Cholinesterase, Acetyl, ACES at 10.0 µM in the Eurofins-Panlabs selectivity screen", "conditions": "Compound concentration 10.0 uM"}, "[4]": {"target": "Nitric oxide synthase 1 (Homo sapiens) (UniProt P29475)", "test": "Inhibition of Nitric Oxide Synthase, Neuronal (nNOS) at 10.0 µM in the Eurofins-Panlabs selectivity screen", "conditions": "Rattus norvegicus; Compound concentration 10.0 uM"}, "[5]": {"target": "Matrix metalloproteinase-15 (Homo sapiens, UniProt P51511)", "sequence (P51511 whole entry)": "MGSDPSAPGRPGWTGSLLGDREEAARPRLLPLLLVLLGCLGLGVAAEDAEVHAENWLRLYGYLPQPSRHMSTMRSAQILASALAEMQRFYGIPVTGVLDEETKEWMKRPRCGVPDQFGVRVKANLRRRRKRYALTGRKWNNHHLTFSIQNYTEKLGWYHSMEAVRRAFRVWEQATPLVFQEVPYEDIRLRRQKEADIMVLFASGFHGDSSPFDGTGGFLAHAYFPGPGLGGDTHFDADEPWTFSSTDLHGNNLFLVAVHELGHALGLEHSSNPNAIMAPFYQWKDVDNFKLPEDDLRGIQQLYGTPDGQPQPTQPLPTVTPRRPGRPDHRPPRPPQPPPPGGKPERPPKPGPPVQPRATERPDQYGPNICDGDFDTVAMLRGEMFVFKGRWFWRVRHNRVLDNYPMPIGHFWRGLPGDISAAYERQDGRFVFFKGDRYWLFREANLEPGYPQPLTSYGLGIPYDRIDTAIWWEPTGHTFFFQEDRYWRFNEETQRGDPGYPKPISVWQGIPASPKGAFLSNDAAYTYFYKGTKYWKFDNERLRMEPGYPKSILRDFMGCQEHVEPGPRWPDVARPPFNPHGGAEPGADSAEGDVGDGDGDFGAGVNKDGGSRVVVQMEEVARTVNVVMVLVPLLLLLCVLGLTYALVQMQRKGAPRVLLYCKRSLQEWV", "test": "IC50 of hMMP15 at 1.0 µM in the Bayer in-house protease panel"}, "[6]": {"target": "Carbonic anhydrase 2 (Homo sapiens) (UniProt P00918)", "test": "Inhibition of Carbonic Anhydrase II at 10.0 µM in the Eurofins-Panlabs selectivity screen", "conditions": "Compound concentration 10.0 uM"}, "[7]": {"target": "Neuronal acetylcholine receptor; alpha3/beta4 (Homo sapiens) (UniProt P30926+P32297)", "test": "Inhibition of Nicotinic Acetylcholine alpha3beta4 at 10.0 µM in the Eurofins-Panlabs selectivity screen", "type": "protein-complex assay", "conditions": "Compound concentration 10.0 uM"}, "[8]": {"target": "GABA-A receptor; anion channel (Rattus norvegicus) (UniProt O09028+P15431+P18506+P18508+P19969+P20236+P23574+P23576+P28471+P28473+P30191+P62813+P63079+P63138+Q91ZM7+Q9ES14)", "test": "Inhibition of GABAA, Chloride Channel, TBOB at 10.0 µM in the Eurofins-Panlabs selectivity screen", "type": "protein-complex assay", "conditions": "Compound concentration 10.0 uM"}, "[9]": {"target": "Sodium-dependent serotonin transporter (Homo sapiens) (UniProt P31645)", "test": "Inhibition of Transporter, Serotonin (5-Hydroxytryptamine) (SERT) at 10.0 µM in the Eurofins-Panlabs selectivity screen", "conditions": "Compound concentration 10.0 uM"}, "[10]": {"target": "Endothelin-1 receptor (Homo sapiens) (UniProt P25101)", "test": "Inhibition of Endothelin ETA at 10.0 µM in the Eurofins-Panlabs selectivity screen", "conditions": "Compound concentration 10.0 uM"}, "[11]": {"target": "Histamine H2 receptor (Homo sapiens) (UniProt P25021)", "test": "Inhibition of Histamine H2 at 10.0 µM in the Eurofins-Panlabs selectivity screen", "conditions": "Compound concentration 10.0 uM"}, "[12]": {"target": "Cannabinoid receptor 2 (Homo sapiens) (UniProt P34972)", "sequence (P34972 whole entry)": "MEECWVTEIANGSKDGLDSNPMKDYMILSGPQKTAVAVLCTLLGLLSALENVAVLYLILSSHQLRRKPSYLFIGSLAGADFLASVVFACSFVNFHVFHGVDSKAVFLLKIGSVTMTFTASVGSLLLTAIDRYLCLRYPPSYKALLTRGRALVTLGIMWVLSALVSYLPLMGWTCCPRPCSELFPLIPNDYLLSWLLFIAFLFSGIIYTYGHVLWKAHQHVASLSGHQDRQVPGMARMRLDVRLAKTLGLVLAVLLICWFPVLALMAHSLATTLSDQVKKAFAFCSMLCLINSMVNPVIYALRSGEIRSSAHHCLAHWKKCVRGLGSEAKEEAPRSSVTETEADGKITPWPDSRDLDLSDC", "test": "Inhibition of Cannabinoid CB2 at 10.0 µM in the Eurofins-Panlabs selectivity screen", "conditions": "Compound concentration 10.0 uM"}, "[13]": {"target": "3-hydroxy-3-methylglutaryl-coenzyme A reductase (Homo sapiens) (UniProt P04035)", "sequence (P04035 whole entry)": "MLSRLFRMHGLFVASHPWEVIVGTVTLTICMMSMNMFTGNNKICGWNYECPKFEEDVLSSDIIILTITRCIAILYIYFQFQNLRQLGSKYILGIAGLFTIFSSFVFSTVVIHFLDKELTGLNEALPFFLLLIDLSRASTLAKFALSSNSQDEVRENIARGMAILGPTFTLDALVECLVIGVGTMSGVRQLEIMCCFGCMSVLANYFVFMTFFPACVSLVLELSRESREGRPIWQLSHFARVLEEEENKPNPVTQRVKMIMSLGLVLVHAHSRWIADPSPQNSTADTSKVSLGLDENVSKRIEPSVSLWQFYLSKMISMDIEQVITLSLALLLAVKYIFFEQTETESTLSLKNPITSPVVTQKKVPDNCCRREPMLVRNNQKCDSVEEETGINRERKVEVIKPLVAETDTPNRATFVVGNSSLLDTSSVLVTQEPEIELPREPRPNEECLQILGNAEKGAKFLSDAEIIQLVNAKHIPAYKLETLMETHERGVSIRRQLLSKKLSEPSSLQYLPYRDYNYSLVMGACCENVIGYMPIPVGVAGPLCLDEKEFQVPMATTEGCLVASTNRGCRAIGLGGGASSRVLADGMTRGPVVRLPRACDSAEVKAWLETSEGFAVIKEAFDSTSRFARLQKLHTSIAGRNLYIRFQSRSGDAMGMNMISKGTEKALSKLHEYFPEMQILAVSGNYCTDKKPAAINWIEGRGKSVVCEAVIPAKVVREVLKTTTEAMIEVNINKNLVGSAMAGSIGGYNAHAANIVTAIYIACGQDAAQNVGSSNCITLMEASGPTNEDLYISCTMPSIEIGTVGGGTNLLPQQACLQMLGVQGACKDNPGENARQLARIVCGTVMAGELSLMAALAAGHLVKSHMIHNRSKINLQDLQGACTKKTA", "test": "Inhibition of HMG-CoA Reductase at 10.0 µM in the Eurofins-Panlabs selectivity screen", "conditions": "Compound concentration 10.0 uM"}, "[14]": {"target": "Growth hormone secretagogue receptor type 1 (Homo sapiens) (UniProt Q92847)", "test": "Inhibition of Growth Hormone Secretagogue (GHS, Ghrelin) at 10.0 µM in the Eurofins-Panlabs selectivity screen", "conditions": "Compound concentration 10.0 uM"}, "[15]": {"target": "Muscarinic acetylcholine receptor M2 (Homo sapiens) (UniProt P08172)", "test": "Inhibition of Muscarinic M2 at 10.0 µM in the Eurofins-Panlabs selectivity screen", "conditions": "Compound concentration 10.0 uM"}, "[16]": {"target": "GABA transporter (Rattus norvegicus) (UniProt P31647+P23978+P31646+P48056)", "test": "Inhibition of Transporter, GABA at 10.0 µM in the Eurofins-Panlabs selectivity screen", "type": "protein assay", "conditions": "Compound concentration 10.0 uM"}, "[17]": {"target": "Type-2 angiotensin II receptor (Homo sapiens) (UniProt P50052)", "test": "Inhibition of Angiotensin AT2 at 10.0 µM in the Eurofins-Panlabs selectivity screen", "conditions": "Compound concentration 10.0 uM"}, "[18]": {"target": "5-hydroxytryptamine receptor 2B (Homo sapiens) (UniProt P41595)", "test": "Inhibition of Serotonin (5-Hydroxytryptamine) 5-HT2B at 10.0 µM in the Eurofins-Panlabs selectivity screen", "conditions": "Compound concentration 10.0 uM"}, "[19]": {"target": "Alpha-2A adrenergic receptor (Homo sapiens) (UniProt P08913)", "test": "Inhibition of Adrenergic alpha2A at 10.0 µM in the Eurofins-Panlabs selectivity screen", "conditions": "Compound concentration 10.0 uM"}, "[20]": {"target": "Adenosine receptor A2a (Homo sapiens) (UniProt P29274)", "test": "Inhibition of Adenosine A2A at 10.0 µM in the Eurofins-Panlabs selectivity screen", "conditions": "Compound concentration 10.0 uM"}, "[21]": {"target": "Macrophage metalloelastase (Homo sapiens, UniProt P39900)", "sequence (P39900 whole entry)": "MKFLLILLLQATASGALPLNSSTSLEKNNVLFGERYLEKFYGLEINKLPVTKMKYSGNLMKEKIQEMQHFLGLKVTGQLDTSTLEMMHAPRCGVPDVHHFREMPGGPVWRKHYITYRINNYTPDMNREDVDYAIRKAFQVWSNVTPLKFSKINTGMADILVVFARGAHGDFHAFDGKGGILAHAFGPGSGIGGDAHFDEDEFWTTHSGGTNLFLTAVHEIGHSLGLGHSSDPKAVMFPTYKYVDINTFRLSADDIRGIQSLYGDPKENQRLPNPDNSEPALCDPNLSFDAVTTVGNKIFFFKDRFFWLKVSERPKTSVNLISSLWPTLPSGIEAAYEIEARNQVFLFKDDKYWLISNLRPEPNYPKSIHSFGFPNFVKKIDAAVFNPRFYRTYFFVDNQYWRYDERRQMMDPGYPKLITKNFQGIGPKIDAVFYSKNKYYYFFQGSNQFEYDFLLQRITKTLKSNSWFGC", "test": "IC50 of hMMP12 at 1.0 µM in the Bayer in-house protease panel"}, "[22]": {"target": "A disintegrin and metalloproteinase with thrombospondin motifs 7 (Homo sapiens, UniProt Q9UKP4)", "test": "Biochemical enzymatic FRET assay (hADAMTS7) ( FRET substrate, HiLyteFluor-488 DELSSMVLELRGLRT-K(QXL520)-E-NH2 (custom synthesis by Anaspec) was used.)"}, "[23]": {"target": "A disintegrin and metalloproteinase with thrombospondin motifs 5 (Homo sapiens, UniProt Q9UNA0)", "test": "IC50 of hADAMTS5 at 1.0 µM in the Bayer in-house protease panel"}, "[24]": {"target": "Prostaglandin G/H synthase 2 (Homo sapiens) (UniProt P35354)", "sequence (P35354 whole entry)": "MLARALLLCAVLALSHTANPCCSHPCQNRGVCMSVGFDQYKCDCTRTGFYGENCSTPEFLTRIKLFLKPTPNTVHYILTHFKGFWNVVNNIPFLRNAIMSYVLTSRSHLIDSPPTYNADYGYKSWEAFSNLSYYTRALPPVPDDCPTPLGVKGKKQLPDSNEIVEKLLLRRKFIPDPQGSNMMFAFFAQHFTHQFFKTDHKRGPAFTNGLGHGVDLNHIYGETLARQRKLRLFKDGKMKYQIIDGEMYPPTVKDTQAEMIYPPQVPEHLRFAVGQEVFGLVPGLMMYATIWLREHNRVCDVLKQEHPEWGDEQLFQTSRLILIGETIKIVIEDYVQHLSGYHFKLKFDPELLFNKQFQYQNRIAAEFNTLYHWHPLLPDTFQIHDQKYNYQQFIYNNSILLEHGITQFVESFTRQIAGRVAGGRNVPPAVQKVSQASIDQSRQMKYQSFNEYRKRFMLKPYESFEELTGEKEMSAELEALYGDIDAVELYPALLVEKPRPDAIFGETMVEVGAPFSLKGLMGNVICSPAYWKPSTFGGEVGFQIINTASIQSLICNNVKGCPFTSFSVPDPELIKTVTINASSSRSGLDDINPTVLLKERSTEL", "test": "Inhibition of Cyclooxygenase COX-2 at 10.0 µM in the Eurofins-Panlabs selectivity screen", "conditions": "Compound concentration 10.0 uM"}, "[25]": {"target": "Estrogen receptor (Homo sapiens) (UniProt P03372)", "sequence (P03372 whole entry)": "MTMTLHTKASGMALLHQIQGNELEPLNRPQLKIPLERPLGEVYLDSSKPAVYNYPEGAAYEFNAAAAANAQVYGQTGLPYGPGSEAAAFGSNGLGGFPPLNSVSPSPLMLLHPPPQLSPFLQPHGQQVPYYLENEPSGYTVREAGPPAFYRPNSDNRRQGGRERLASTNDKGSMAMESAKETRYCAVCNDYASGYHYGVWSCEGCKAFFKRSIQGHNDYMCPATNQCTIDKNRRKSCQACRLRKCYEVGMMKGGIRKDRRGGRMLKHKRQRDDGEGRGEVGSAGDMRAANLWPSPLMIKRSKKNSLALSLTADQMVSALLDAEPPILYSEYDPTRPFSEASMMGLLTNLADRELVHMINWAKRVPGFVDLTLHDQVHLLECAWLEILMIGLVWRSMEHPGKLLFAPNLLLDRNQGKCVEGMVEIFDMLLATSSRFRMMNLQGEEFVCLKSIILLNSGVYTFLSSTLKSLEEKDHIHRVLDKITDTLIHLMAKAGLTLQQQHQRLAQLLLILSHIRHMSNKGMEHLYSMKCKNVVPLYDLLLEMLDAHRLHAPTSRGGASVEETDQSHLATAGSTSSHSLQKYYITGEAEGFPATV", "test": "Inhibition of Estrogen ERalpha at 10.0 µM in the Eurofins-Panlabs selectivity screen", "conditions": "Compound concentration 10.0 uM"}, "[26]": {"target": "Alpha-2B adrenergic receptor (Homo sapiens) (UniProt P18089)", "test": "Inhibition of Adrenergic alpha2B at 10.0 µM in the Eurofins-Panlabs selectivity screen", "conditions": "Compound concentration 10.0 uM"}, "[27]": {"target": "Histamine H1 receptor (Homo sapiens) (UniProt P35367)", "test": "Inhibition of Histamine H1 at 10.0 µM in the Eurofins-Panlabs selectivity screen", "conditions": "Compound concentration 10.0 uM"}, "[28]": {"target": "Type-1 angiotensin II receptor (Homo sapiens) (UniProt P30556)", "test": "Inhibition of Angiotensin AT1 at 10.0 µM in the Eurofins-Panlabs selectivity screen", "conditions": "Compound concentration 10.0 uM"}, "Caspase-3": {"target": "Caspase-3 (Homo sapiens, UniProt P42574)", "sequence (P42574 29-175 limits assumed)": "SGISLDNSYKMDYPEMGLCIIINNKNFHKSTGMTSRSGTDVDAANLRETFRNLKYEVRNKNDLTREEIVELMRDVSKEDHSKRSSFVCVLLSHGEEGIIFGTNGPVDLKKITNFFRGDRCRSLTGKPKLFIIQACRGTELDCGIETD", "sequence (P42574 176-277 limits assumed)": "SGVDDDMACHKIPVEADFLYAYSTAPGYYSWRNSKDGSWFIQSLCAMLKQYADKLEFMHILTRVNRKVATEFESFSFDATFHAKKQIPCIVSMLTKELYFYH", "test": "IC50 of Caspase 3 at 1.0 µM in the Bayer in-house protease panel"}, "[29]": {"target": "Disintegrin and metalloproteinase domain-containing protein 8 (Homo sapiens, UniProt P78325)", "test": "IC50 of hADAM8 at 1.0 µM in the Bayer in-house protease panel"}, "[30]": {"target": "D(2) dopamine receptor (Homo sapiens) (UniProt P14416)", "sequence (P14416 whole entry)": "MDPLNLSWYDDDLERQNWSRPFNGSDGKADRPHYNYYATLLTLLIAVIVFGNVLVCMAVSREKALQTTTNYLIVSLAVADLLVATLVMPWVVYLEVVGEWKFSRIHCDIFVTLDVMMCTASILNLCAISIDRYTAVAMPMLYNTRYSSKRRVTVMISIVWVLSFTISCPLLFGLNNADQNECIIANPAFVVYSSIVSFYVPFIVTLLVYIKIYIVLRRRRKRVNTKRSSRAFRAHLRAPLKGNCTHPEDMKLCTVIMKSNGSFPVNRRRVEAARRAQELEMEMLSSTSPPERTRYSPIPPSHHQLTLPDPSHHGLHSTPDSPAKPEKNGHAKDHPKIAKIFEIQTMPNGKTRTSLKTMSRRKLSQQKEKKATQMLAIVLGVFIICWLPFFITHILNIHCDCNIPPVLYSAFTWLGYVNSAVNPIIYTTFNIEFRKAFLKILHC", "test": "Inhibition of Dopamine D2S at 10.0 µM in the Eurofins-Panlabs selectivity screen", "conditions": "Compound concentration 10.0 uM"}, "[31]": {"target": "3',5'-cyclic-AMP phosphodiesterase 4D (Homo sapiens) (UniProt Q08499)", "test": "Inhibition of Phosphodiesterase PDE4D2 at 10.0 µM in the Eurofins-Panlabs selectivity screen", "conditions": "Compound concentration 10.0 uM"}, "[32]": {"target": "A disintegrin and metalloproteinase with thrombospondin motifs 4 (Homo sapiens, UniProt O75173)", "test": "IC50 of hADAMTS4 at 1.0 µM in the Bayer in-house protease panel"}, "[33]": {"target": "Beta-1 adrenergic receptor (Homo sapiens) (UniProt P08588)", "test": "Inhibition of Adrenergic beta1 at 10.0 µM in the Eurofins-Panlabs selectivity screen", "conditions": "Compound concentration 10.0 uM"}}, "note": "Active and inactive are the calls of the source. The calls are words filed in the database; no cut-off is given here."}
{"smiles": "Cn1nccc1[C@]1(CNC(=O)c2ccc(F)c(F)c2-c2ccc(C(F)(F)F)cc2)NC(=O)NC1=O", "values": [{"measurement": "inhibition", "setting": "[1]", "value": 0, "unit": "%"}, {"measurement": "IC50", "setting": "[2]", "value": "> 100", "unit": "µM"}, {"measurement": "inhibition", "setting": "[3]", "value": 3, "unit": "%"}, {"measurement": "inhibition", "setting": "[4]", "value": 0, "unit": "%"}, {"measurement": "IC50", "setting": "[5]", "value": 78.5, "unit": "µM"}, {"measurement": "inhibition", "setting": "[6]", "value": -2, "unit": "%"}, {"measurement": "inhibition", "setting": "[7]", "value": 2, "unit": "%"}, {"measurement": "inhibition", "setting": "[8]", "value": 0, "unit": "%"}, {"measurement": "inhibition", "setting": "[9]", "value": 10, "unit": "%"}, {"measurement": "inhibition", "setting": "[10]", "value": 2, "unit": "%"}, {"measurement": "inhibition", "setting": "[11]", "value": 16, "unit": "%"}, {"measurement": "inhibition", "setting": "[12]", "value": -1, "unit": "%"}, {"measurement": "inhibition", "setting": "[13]", "value": -5, "unit": "%"}, {"measurement": "inhibition", "setting": "[14]", "value": 6, "unit": "%"}, {"measurement": "inhibition", "setting": "[15]", "value": 1, "unit": "%"}, {"measurement": "inhibition", "setting": "[16]", "value": 7, "unit": "%"}, {"measurement": "inhibition", "setting": "[17]", "value": 0, "unit": "%"}, {"measurement": "inhibition", "setting": "[18]", "value": -1, "unit": "%"}, {"measurement": "inhibition", "setting": "[19]", "value": -3, "unit": "%"}, {"measurement": "inhibition", "setting": "[20]", "value": 3, "unit": "%"}, {"measurement": "IC50", "setting": "[21]", "value": 5.38, "unit": "µM"}, {"measurement": "IC50", "setting": "[22]", "value": "0.006 µM (active)"}, {"measurement": "IC50", "setting": "[23]", "value": 9.92, "unit": "µM"}, {"measurement": "inhibition", "setting": "[24]", "value": 11, "unit": "%"}, {"measurement": "inhibition", "setting": "[25]", "value": 13, "unit": "%"}, {"measurement": "inhibition", "setting": "[26]", "value": -3, "unit": "%"}, {"measurement": "inhibition", "setting": "[27]", "value": -1, "unit": "%"}, {"measurement": "inhibition", "setting": "[28]", "value": -1, "unit": "%"}, {"measurement": "IC50", "setting": "Caspase-3", "value": "> 100", "unit": "µM"}, {"measurement": "IC50", "setting": "[29]", "value": 2.25, "unit": "µM"}, {"measurement": "inhibition", "setting": "[30]", "value": 0, "unit": "%"}, {"measurement": "inhibition", "setting": "[31]", "value": 3, "unit": "%"}, {"measurement": "IC50", "setting": "[32]", "value": 6.73, "unit": "µM"}, {"measurement": "inhibition", "setting": "[33]", "value": -8, "unit": "%"}]}
